According to patent publication US20020137929A1, “1 - (3-heterocyclylphenyl) isothiourea, -isourea, -guanidine and -amidine herbicidal agents” (Intellectual Property Department, BASF Aktiengesellschaft, priority 1998, published 2002):

Columns and labels:
MOOVA (Monochoria) = test: Preemergence weed control under flooded paddy conditions; format: in vivo, Monochoria vaginalis; conditions: rated 3-4 weeks after treatment
Summary of the method: (§1)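 Visual injury scored 0-9 against control three to four weeks post-treatment, greenhouse-grown. Application: acetone/water (50/50) solutions dosed directly into flood water (1.5-3 cm over silt loam, planted top 0.5 cm), roughly 0.0313 to 0.500 kg/ha active ingredient.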

[1] = tested on: IPOHE (Morningglory, Ivyleaf); test: Preemergence herbicidal evaluation; format: in vivo, Ipomoea hederacea; conditions: rated 4-5 weeks after treatment
Summary of the method: (§2)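 Steps: mix seeds into potting soil; plant atop ~1 inch soil; spray compound in aqueous acetone (~0.0156-0.500 kg/ha equivalent); maintain in greenhouse with watering; rate visually 0-9 versus control at 4-5 weeks.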

AMBEL (Ragweed, Common) [2] = test: Postemergence herbicidal evaluation; format: in vivo, Ambrosia artemisifolia; conditions: postemergence
Summary of the method: (§3)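 Herbicidal effect was judged by eye on a 0–9 scale covering stand, vigor, deformity, size and chlorosis, compared with controls, four to five weeks after seedlings about two weeks old were sprayed (40 psi, ~0.0156–0.500 kg/ha).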

ECHCG (Barnyardgrass) = test: Postemergence herbicidal evaluation; format: in vivo, Echinochloa crus-galli; conditions: postemergence
Summary of the method: as §3

ABUTH (Velvetleaf) = test: Preemergence herbicidal evaluation; format: in vivo, Abutilon theophrasti; conditions: rated 4-5 weeks after treatment
Summary of the method: as §2

AMBEL (Ragweed, Common) [3] = test: Preemergence herbicidal evaluation; format: in vivo, Ambrosia artemisifolia; conditions: rated 4-5 weeks after treatment
Summary of the method: as §2

[4] = tested on: GLXMAW (Soybean, Williams); test: Postemergence herbicidal evaluation; format: in vivo, Glycine max, (L.) Merr. cv Williams; conditions: postemergence
Summary of the method: as §3

[5] = tested on: CHEAL (Lambsquarters, Common); test: Postemergence herbicidal evaluation; format: in vivo, Chenopodium album; conditions: postemergence
Summary of the method: as §3

CASOB (Sicklepod) [6] = test: Postemergence herbicidal evaluation; format: in vivo, Cassia obtusifolia; conditions: postemergence
Summary of the method: as §3

CASOB (Sicklepod) [7] = test: Preemergence herbicidal evaluation; format: in vivo, Cassia obtusifolia; conditions: rated 4-5 weeks after treatment
Summary of the method: as §2

[8] = tested on: GLXMAW (Soybean, Williams); test: Preemergence herbicidal evaluation; format: in vivo, Glycine max, (L.) Merr. cv Williams; conditions: rated 4-5 weeks after treatment
Summary of the method: as §2

[9] = tested on: TRZAWR (Wheat, Winter, cv Riband); test: Postemergence herbicidal evaluation; format: in vivo, Triticum aestivum; conditions: postemergence
Summary of the method: as §3

[10] = tested on: SAGPY (Arrowhead (Pygmaea)); test: Preemergence weed control under flooded paddy conditions; format: in vivo, Sagittaria pygmaea; conditions: rated 3-4 weeks after treatment
Summary of the method: as §1

ORYSAT (Rice, Tebonnet) = test: Preemergence herbicidal evaluation; format: in vivo, Oryza sativa, (L.) Tebonnet; conditions: rated 4-5 weeks after treatment
Summary of the method: as §2

[11] = tested on: CHEAL (Lambsquarters, Common); test: Preemergence herbicidal evaluation; format: in vivo, Chenopodium album; conditions: rated 4-5 weeks after treatment
Summary of the method: as §2

[12] = tested on: IPOHE (Morningglory, Ivyleaf); test: Postemergence herbicidal evaluation; format: in vivo, Ipomoea hederacea; conditions: postemergence
Summary of the method: as §3

For `CCOC(=O)CN1C(=O)C(CC)SC1=Nc1cc(-n2c(=O)cc(C(F)(F)F)n(C)c2=O)c(F)cc1Cl` (stereo not shown) [Compound 13, Ethyl 2-{{2-chloro-5-[3,6-dihydro-3-methyl-2,6-dioxo-4-(trifluoromethyl)-1(2H)-pyrimidinyl]-4-fluorophenyl}imino}-5-ethyl-4-oxo-3-thiazolidineacetate], the “Herbicidal rating MOOVA” value (MOOVA (Monochoria); 0.0156 kg/ha) was 7.5, the “Herbicidal rating MOOVA” value (MOOVA (Monochoria); 0.0313 kg/ha) was 9.0 and the “Herbicidal rating MOOVA” value (MOOVA (Monochoria); 0.0625 kg/ha) was 9.0. The “Herbicidal rating MOOVA” value (MOOVA (Monochoria); 0.1250 kg/ha) was 9.0, the “Herbicidal rating MOOVA” value (MOOVA (Monochoria); 0.2500 kg/ha) was 9.0 and the “IPOHE preemergence herbicidal rating” value ([1]; rate 0.0156 kg/ha) was 2.5. The “IPOHE preemergence herbicidal rating” value ([1]; rate 0.0313 kg/ha) was 3.5, the “IPOHE preemergence herbicidal rating” value ([1]; rate 0.0625 kg/ha) was 9.0 and the “IPOHE preemergence herbicidal rating” value ([1]; rate 0.1250 kg/ha) was 8.0. The “IPOHE preemergence herbicidal rating” value ([1]; rate 0.2500 kg/ha) was 9.0, the AMBEL herbicidal rating (AMBEL (Ragweed, Common) [2]; rate 0.0156 kg/ha) was 7.0 and the AMBEL herbicidal rating (AMBEL (Ragweed, Common) [2]; rate 0.0313 kg/ha) was 9.0. For the same compound, the AMBEL herbicidal rating (AMBEL (Ragweed, Common) [2]; rate 0.0625 kg/ha) was 9.0, the AMBEL herbicidal rating (AMBEL (Ragweed, Common) [2]; rate 0.1250 kg/ha) was 9.0 and the ECHCG herbicidal rating (ECHCG (Barnyardgrass); rate 0.0156 kg/ha) was 2.0. It also gave an ECHCG herbicidal rating (ECHCG (Barnyardgrass); rate 0.0313 kg/ha) of 2.0, an ECHCG herbicidal rating (ECHCG (Barnyardgrass); rate 0.0625 kg/ha) of 3.0 and an ECHCG herbicidal rating (ECHCG (Barnyardgrass); rate 0.1250 kg/ha) of 7.0. For the same compound, the “ABUTH preemergence herbicidal rating” value (ABUTH (Velvetleaf); rate 0.0156 kg/ha) was 6.0, the “ABUTH preemergence herbicidal rating” value (ABUTH (Velvetleaf); rate 0.0313 kg/ha) was 9.0 and the “ABUTH preemergence herbicidal rating” value (ABUTH (Velvetleaf); rate 0.0625 kg/ha) was 9.0. For the same compound, the “ABUTH preemergence herbicidal rating” value (ABUTH (Velvetleaf); rate 0.1250 kg/ha) was 9.0, the “ABUTH preemergence herbicidal rating” value (ABUTH (Velvetleaf); rate 0.2500 kg/ha) was 9.0 and the “AMBEL preemergence herbicidal rating” value (AMBEL (Ragweed, Common) [3]; rate 0.0156 kg/ha) was 0.0. The “AMBEL preemergence herbicidal rating” value (AMBEL (Ragweed, Common) [3]; rate 0.0313 kg/ha) was 2.0, the “AMBEL preemergence herbicidal rating” value (AMBEL (Ragweed, Common) [3]; rate 0.0625 kg/ha) was 6.0 and the “AMBEL preemergence herbicidal rating” value (AMBEL (Ragweed, Common) [3]; rate 0.1250 kg/ha) was 9.0. For the same compound, the “AMBEL preemergence herbicidal rating” value (AMBEL (Ragweed, Common) [3]; rate 0.2500 kg/ha) was 9.0, the GLXMAW herbicidal rating ([4]; rate 0.0156 kg/ha) was 5.0 and the GLXMAW herbicidal rating ([4]; rate 0.0313 kg/ha) was 5.5. The GLXMAW herbicidal rating ([4]; rate 0.0625 kg/ha) was 5.5, the GLXMAW herbicidal rating ([4]; rate 0.1250 kg/ha) was 7.5 and the CHEAL herbicidal rating ([5]; rate 0.0156 kg/ha) was 9.0. For the same compound, the CHEAL herbicidal rating ([5]; rate 0.0313 kg/ha) was 8.0, the CHEAL herbicidal rating ([5]; rate 0.0625 kg/ha) was 9.0 and the CHEAL herbicidal rating ([5]; rate 0.1250 kg/ha) was 9.0. For the same compound, the CASOB herbicidal rating (CASOB (Sicklepod) [6]; rate 0.0156 kg/ha) was 0.0, the CASOB herbicidal rating (CASOB (Sicklepod) [6]; rate 0.0313 kg/ha) was 0.0 and the CASOB herbicidal rating (CASOB (Sicklepod) [6]; rate 0.0625 kg/ha) was 3.0. For the same compound, the CASOB herbicidal rating (CASOB (Sicklepod) [6]; rate 0.1250 kg/ha) was 3.0, the “CASOB preemergence herbicidal rating” value (CASOB (Sicklepod) [7]; rate 0.0156 kg/ha) was 0.0 and the “CASOB preemergence herbicidal rating” value (CASOB (Sicklepod) [7]; rate 0.0313 kg/ha) was 0.0. For the same compound, the “CASOB preemergence herbicidal rating” value (CASOB (Sicklepod) [7]; rate 0.0625 kg/ha) was 0.0, the “CASOB preemergence herbicidal rating” value (CASOB (Sicklepod) [7]; rate 0.1250 kg/ha) was 1.0 and the “CASOB preemergence herbicidal rating” value (CASOB (Sicklepod) [7]; rate 0.2500 kg/ha) was 3.0. The “GLXMAW preemergence herbicidal rating” value ([8]; rate 0.0156 kg/ha) was 0.0, the “GLXMAW preemergence herbicidal rating” value ([8]; rate 0.0313 kg/ha) was 0.0 and the “GLXMAW preemergence herbicidal rating” value ([8]; rate 0.0625 kg/ha) was 1.0. The “GLXMAW preemergence herbicidal rating” value ([8]; rate 0.1250 kg/ha) was 2.0, the “GLXMAW preemergence herbicidal rating” value ([8]; rate 0.2500 kg/ha) was 4.0 and the TRZAWR herbicidal rating ([9]; rate 0.0156 kg/ha) was 4.5. For the same compound, the TRZAWR herbicidal rating ([9]; rate 0.0313 kg/ha) was 4.5, the TRZAWR herbicidal rating ([9]; rate 0.0625 kg/ha) was 6.0 and the TRZAWR herbicidal rating ([9]; rate 0.1250 kg/ha) was 6.0. For the same compound, the “Herbicidal rating SAGPY” value ([10]; 0.0156 kg/ha) was 0.0, the “Herbicidal rating SAGPY” value ([10]; 0.0313 kg/ha) was 0.0 and the “Herbicidal rating SAGPY” value ([10]; 0.0625 kg/ha) was 0.0. For the same compound, the “Herbicidal rating SAGPY” value ([10]; 0.1250 kg/ha) was 0.0, the “Herbicidal rating SAGPY” value ([10]; 0.2500 kg/ha) was 0.0 and the “ORYSAT preemergence herbicidal rating” value (ORYSAT (Rice, Tebonnet); rate 0.0156 kg/ha) was 0.0. For the same compound, the “ORYSAT preemergence herbicidal rating” value (ORYSAT (Rice, Tebonnet); rate 0.0313 kg/ha) was 0.0, the “ORYSAT preemergence herbicidal rating” value (ORYSAT (Rice, Tebonnet); rate 0.0625 kg/ha) was 0.0 and the “ORYSAT preemergence herbicidal rating” value (ORYSAT (Rice, Tebonnet); rate 0.1250 kg/ha) was 3.0. For the same compound, the “ORYSAT preemergence herbicidal rating” value (ORYSAT (Rice, Tebonnet); rate 0.2500 kg/ha) was 4.0, the “CHEAL preemergence herbicidal rating” value ([11]; rate 0.0156 kg/ha) was 9.0 and the “CHEAL preemergence herbicidal rating” value ([11]; rate 0.0313 kg/ha) was 9.0. For the same compound, the “CHEAL preemergence herbicidal rating” value ([11]; rate 0.0625 kg/ha) was 9.0, the “CHEAL preemergence herbicidal rating” value ([11]; rate 0.1250 kg/ha) was 9.0 and the “CHEAL preemergence herbicidal rating” value ([11]; rate 0.2500 kg/ha) was 9.0. For the same compound, the IPOHE herbicidal rating ([12]; rate 0.0156 kg/ha) was 9.0, the IPOHE herbicidal rating ([12]; rate 0.0313 kg/ha) was 9.0 and the IPOHE herbicidal rating ([12]; rate 0.0625 kg/ha) was 9.0. For the same compound, the IPOHE herbicidal rating ([12]; rate 0.1250 kg/ha) was 9.0.
